The record followed here is patent US9650382B2, “Heteroarylamide derivatives having antiandrogenic properties” (MEDEIA THERAPEUTICS LTD, priority 2012, dated 2017).

Residue numbers refer to the chain shown, from its start.

Type in all cases: cell-based
For assay [1], the target named is T1, W741L AR (Homo sapiens, UniProt P10275, W742L).
T1 construct: expressed in transfected cells; host or cells: COS-1 cells
T1 sequence (P10275 1-920 W742L): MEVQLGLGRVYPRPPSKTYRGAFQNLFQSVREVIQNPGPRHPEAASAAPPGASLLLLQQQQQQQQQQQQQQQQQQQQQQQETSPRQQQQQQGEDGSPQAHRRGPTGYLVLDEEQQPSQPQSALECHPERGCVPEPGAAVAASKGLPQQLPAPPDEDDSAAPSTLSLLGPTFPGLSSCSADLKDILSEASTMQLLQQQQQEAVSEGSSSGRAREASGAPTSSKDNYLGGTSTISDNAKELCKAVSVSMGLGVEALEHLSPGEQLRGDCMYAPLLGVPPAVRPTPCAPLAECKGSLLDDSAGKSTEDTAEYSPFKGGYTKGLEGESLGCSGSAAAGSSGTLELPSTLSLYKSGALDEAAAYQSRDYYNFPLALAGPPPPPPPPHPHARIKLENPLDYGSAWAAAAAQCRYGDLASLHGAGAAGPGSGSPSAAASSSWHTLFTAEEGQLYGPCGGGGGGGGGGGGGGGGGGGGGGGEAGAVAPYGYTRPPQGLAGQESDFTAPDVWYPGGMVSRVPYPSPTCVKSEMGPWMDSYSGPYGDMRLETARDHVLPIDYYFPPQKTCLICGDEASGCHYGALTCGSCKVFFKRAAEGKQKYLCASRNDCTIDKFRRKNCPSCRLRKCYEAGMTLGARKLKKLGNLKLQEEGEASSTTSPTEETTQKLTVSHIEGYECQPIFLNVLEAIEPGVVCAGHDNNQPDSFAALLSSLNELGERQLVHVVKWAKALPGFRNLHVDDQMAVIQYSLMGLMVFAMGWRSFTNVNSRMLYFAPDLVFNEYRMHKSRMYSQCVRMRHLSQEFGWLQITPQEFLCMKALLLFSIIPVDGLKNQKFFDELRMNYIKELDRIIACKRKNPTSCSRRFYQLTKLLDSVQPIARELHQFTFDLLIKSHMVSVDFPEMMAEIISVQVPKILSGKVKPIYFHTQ
Description: Agonism in W741L mutant AR, AR transactivation assay in COS-1 cells, test compounds alone. Particulars: 10 microM; compound alone. How it is done: (§1) COS-1 cells (American Type Culture Collection, ATCC) were cultured in Dulbecco's Modified Eagle Medium (DMEM) supplemented with 10% fetal bovine serum (FBS), penicillin (6.25 U/ml) and streptomycin (6.25 μg/ml) and seeded onto 48-well plates (50 000 cells/well) one day before transfection. Transfection media containing 2.5% charcoal-stripped FBS in DMEM was changed on cells 4 h prior to transfection. Cells were transfected with 50 ng of luciferase (LUC) reporter gene plasmid (pPB-286/+32-LUC; PB, probasin promoter), 5 ng of AR expression plasmid (pSG5-hAR), and 5 ng of pCMVβ (an internal, beta-galactosidase control for transfection efficiency and cell growth) using TransIT-LT1 reagent (Mirus Bio Corporation) according to the manufacturer's instructions. […] After 18 h, reporter gene activities (LUC and beta-galactosidase) were determined according to standard methods. The data are expressed as relative LUC activity (luciferase light units divided by beta-galactosidase A420nm to control for transfection efficiency) of a given compound in relation to the activity of a reference test item (=100%).
Agonism in W741L AR of compounds of the present invention was measured in AR transactivation assay in COS-1 cells as described above except that AR expression vector harboring the W741L mutation was used instead of the WT AR. The transfected cells were exposed to test compounds alone.

In assay [2] the target is T2, WT AR (Homo sapiens, UniProt P10275).
T2 construct: expressed in transfected cells; host or cells: COS-1 cells (transient transfection); alternatively non-human mammalian cells of the INDIGO Biosciences Human AR Reporter Assay System
T2 sequence (P10275 1-920): T1 sequence (P10275 1-920 W742L) with L742W
Description: Antagonism in WT AR, AR transactivation reporter gene assay (COS-1 cells, or INDIGO Human AR Reporter Assay System), competitive setting with reference agonist. The note with it: for activity at 1 µM / activity at 10 µM: COS-1, read-out: Relative LUC activity (%) indicating residual androgen activity in relation to reference agonist (100%); for Relative LUC activity (%) indicating residual androgen activity in relation to reference agonist (100%): competitive setting with reference agonist (50 nM testosterone or 400 pM FIT). On the procedure:
After 18 h, reporter gene activities (LUC and beta-galactosidase) were determined according to standard methods. The data are expressed as relative LUC activity (luciferase light units divided by beta-galactosidase A420nm to control for transfection efficiency) of a given compound in relation to the activity of a reference test item (=100%).
Alternatively, commercial Human AR Reporter Assay System (INDIGO Biosciences) was used. In this assay, non-human mammalian cells are engineered to express human WT AR together with LUC reporter gene linked to AR-responsive promoter. 400 pM 6-alpha-FI testosterone, FIT, was used as a reference agonist in a competitive setting.
Antagonism in WT AR of compounds of the present invention was measured in AR transactivation assay in COS-1 cells in competitive setting using testosterone as a reference agonist as described above. Alternatively INDIGO Bioscience's Human AR Reporter Assay System was utilized. […] Relative LUC activity representing AR-dependent transcription obtained by exposure to reference agonist alone was set to 100%.
In general terms: Reporter assays use an easily measured gene product as a stand-in for the process of interest.

Assay [3] has as its target T3, T877A AR (Homo sapiens, UniProt P10275, T878A).
T3 construct: expressed in transfected cells; host or cells: COS-1 cells
T3 sequence (P10275 1-920 T878A): T1 sequence (P10275 1-920 W742L) with L742W, T878A
Description: Agonism in T877A mutant AR, AR transactivation assay in COS-1 cells, test compounds alone. The note with it: 10 microM; compound alone. How it is done: as §1
Agonism in T877A AR of compounds of the present invention was measured in AR transactivation assay in COS-1 cells as described above except that AR expression vector harboring the T877A mutation was used. The transfected cells were exposed to test compounds alone. Testosterone was used as reference agonist, and its' relative LUC activity representing AR-dependent transcription was set to 100%.

For `CC(C)S(=O)(=O)CC(O)(C(=O)Nc1ccc(C#N)c(C(F)(F)F)c1)c1ccc(Cl)nc1` (stereo not shown) [Example 12, 2-(6-chloropyridin-3-yl)-N-[4-cyano-3-(trifluoromethyl)phenyl]-2-hydroxy-3-(propane-2-sulfonyl)propanamide], the “Relative LUC activity (%) in W741L AR in relation to BIC (100%)” value (“Relative LUC activity (%) in W741L AR” for short) in assay [1] came to 3%. For the same compound, in assay [2], the activity at 1 µM amounted to 30% and the activity at 10 µM stood at 5%. Further, in assay [3], the “Relative LUC activity (%) in T877A AR in relation to testosterone (100%)” value (“Relative LUC activity (%) in T877A AR” below) worked out at 4%.

On to `N#Cc1ccc(NC(=O)C(O)(CS(=O)(=O)c2ccc(F)cc2)c2ccc(C(F)(F)F)nc2)cc1Cl` (stereo not shown) [Example 15, N-(3-chloro-4-cyanophenyl)-3-(4-fluorobenzenesulfonyl)-2-hydroxy-2-[6-(trifluoromethyl)pyridin-3-yl]propanamide], for which, in assay [2], the activity at 1 µM was 25% and the activity at 10 µM came to 3%.

Regarding `CCS(=O)(=O)CC(O)(C(=O)Nc1ccc(C#N)c(C(F)(F)F)c1)c1ccc(Cl)nc1` (stereo not shown) [Example 1, 2-(6-chloropyridin-3-yl)-N-[4-cyano-3-(trifluoromethyl)phenyl]-3-(ethanesulfonyl)-2-hydroxypropanamide], the “Relative LUC activity (%) in W741L AR” value in assay [1] turned out to be 6%. In assay [2], the activity at 1 µM stood at 37% and the activity at 10 µM was found to be 8%. Further, the “Relative LUC activity (%) in T877A AR” value in assay [3] is on record as 13%.

On to `N#Cc1ccc(NC(=O)C(O)(CS(=O)(=O)Cc2ccc(Cl)cc2)c2ccc(Cl)nc2)cc1Cl` (stereo not shown) [Example 8, N-(3-chloro-4-cyanophenyl)-3-{[(4-chlorophenyl)methane]sulfonyl}-2-(6-chloropyridin-3-yl)-2-hydroxypropanamide], for which the “Relative LUC activity (%) in W741L AR” value in assay [1] came out at 4%. The “Relative LUC activity (%) indicating residual androgen activity in relation to reference agonist (100%)” value in assay [2] (1 microM compound) came out at 32%; in assay [2] (10 microM compound), 4%. Also, the “Relative LUC activity (%) in T877A AR” value in assay [3] came to 2%.

As for `CC(C)CCS(=O)(=O)CC(O)(C(=O)Nc1ccc(C#N)c(C(F)(F)F)c1)c1ccc(Cl)nc1` (stereo not shown) [Example 6, 2-(6-chloropyridin-3-yl)-N-[4-cyano-3-(trifluoromethyl)phenyl]-2-hydroxy-3-[(3-methylbutane)sulfonyl]propanamide], the “Relative LUC activity (%) in W741L AR” value in assay [1] was determined as 31%. Further, the “Relative LUC activity (%) indicating residual androgen activity in relation to reference agonist (100%)” value is listed as 28% in assay [2] (1 microM compound) and 7% in assay [2] (10 microM compound). Further, the “Relative LUC activity (%) in T877A AR” value in assay [3] is given as 4%.

Turning to `N#Cc1ccc(NC(=O)C(O)(CS(=O)(=O)c2ccc(Cl)cc2)c2ccc(Cl)nc2)cc1Cl` (stereo not shown) [Example 9, N-(3-chloro-4-cyanophenyl)-3-[(4-chlorobenzene)sulfonyl]-2-(6-chloropyridin-3-yl)-2-hydroxypropanamide], the “Relative LUC activity (%) in W741L AR” value in assay [1] turned out to be 23%. Besides, the results for the “Relative LUC activity (%) indicating residual androgen activity in relation to reference agonist (100%)” value in assay [2] (1 microM compound) and in assay [2] (10 microM compound) were 25% and 13%, respectively. Moreover, in assay [3], the “Relative LUC activity (%) in T877A AR” value is 3%.
